Experimental data from PubChem BioAssay (NCI).
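Each compound was tested at five concentrations against cells in 96-well plates for 48 hours. GI50 marks 50% less growth. TGI: total growth inhibition.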

Tests used:
Experiment in all cases: growth of human tumour cells (NCI), 48 h
SK-MEL-5 melanoma = system: SK-MEL-5 melanoma
UO-31 renal = system: UO-31 renal
K-562 leukemia = system: K-562 leukemia
NCI-H23 lung = system: NCI-H23 lung
SF-295 CNS = system: SF-295 CNS
HL-60(TB) leukemia = system: HL-60(TB) leukemia
SW-620 colon = system: SW-620 colon
TK-10 renal = system: TK-10 renal
RXF 393 renal = system: RXF 393 renal
M14 melanoma = system: M14 melanoma
SF-268 CNS = system: SF-268 CNS
OVCAR-4 ovarian = system: OVCAR-4 ovarian
HOP-92 NSCLC = system: HOP-92 NSCLC
MDA-MB-468 breast = system: MDA-MB-468 breast
MOLT-4 leukemia = system: MOLT-4 leukemia
HT29 colon = system: HT29 colon
HCT-15 colon = system: HCT-15 colon
LOX IMVI melanoma = system: LOX IMVI melanoma
COLO 205 colon = system: COLO 205 colon
PC-3 prostate = system: PC-3 prostate
OVCAR-3 ovarian = system: OVCAR-3 ovarian
MALME-3M melanoma = system: MALME-3M melanoma
SR leukemia = system: SR leukemia
HCC-2998 colon = system: HCC-2998 colon
OVCAR-5 ovarian = system: OVCAR-5 ovarian
A549 NSCLC = system: A549 NSCLC
UACC-62 melanoma = system: UACC-62 melanoma
SNB-75 CNS = system: SNB-75 CNS
BT-549 breast = system: BT-549 breast

## C=C1CC[C@@H]2[C@]3(C)COC(c4cn[nH]c4-c4ccccc4)O[C@@H]3CC[C@@]2(C)[C@@H]1C/C=C1/C(=O)OCC1O (stereo partly drawn)
SK-MEL-5 melanoma
  GI50: 12.4 µM
  TGI: 24.8 µM
UO-31 renal
  GI50: 11.5 µM
  TGI: 28 µM
K-562 leukemia
  GI50: 12.8 µM
  TGI: > 100 µM
NCI-H23 lung
  GI50: 13.6 µM
  TGI: 26.5 µM
SF-295 CNS
  GI50: 15.4 µM
  TGI: 30.5 µM
HL-60(TB) leukemia
  GI50: 13.3 µM
  TGI: 67.5 µM
SW-620 colon
  GI50: 14.4 µM
  TGI: 33.3 µM
TK-10 renal
  GI50: 20.2 µM
  TGI: 51.7 µM
RXF 393 renal
  GI50: 8.5 µM
  TGI: 21.7 µM
M14 melanoma
  GI50: 14.4 µM
  TGI: 28.2 µM
SF-268 CNS
  GI50: 18.5 µM
  TGI: 75.4 µM
OVCAR-4 ovarian
  GI50: 15.2 µM
  TGI: 52 µM
HOP-92 NSCLC
  GI50: 9.14 µM
  TGI: 30.6 µM
MDA-MB-468 breast
  GI50: 9 µM
  TGI: 32.6 µM
MOLT-4 leukemia
  GI50: 3.83 µM
  TGI: 54.5 µM
HT29 colon
  GI50: 15.4 µM
  TGI: 32.7 µM
HCT-15 colon
  GI50: 13.2 µM
  TGI: 27.2 µM
LOX IMVI melanoma
  GI50: 10.9 µM
  TGI: 25 µM
COLO 205 colon
  GI50: 15 µM
  TGI: 28.2 µM
PC-3 prostate
  GI50: 12.2 µM
  TGI: > 100 µM
OVCAR-3 ovarian
  GI50: 11.1 µM
  TGI: 37.5 µM
MALME-3M melanoma
  GI50: 13.2 µM
  TGI: 30.5 µM
SR leukemia
  GI50: 21.2 µM
  TGI: > 100 µM
HCC-2998 colon
  GI50: 15.8 µM
  TGI: 29.3 µM
OVCAR-5 ovarian
  GI50: 19.2 µM
  TGI: 37.7 µM
A549 NSCLC
  GI50: 17.3 µM
  TGI: 51.8 µM
UACC-62 melanoma
  GI50: 13.5 µM
  TGI: 28.7 µM
SNB-75 CNS
  GI50: 10.4 µM
  TGI: 35.1 µM
BT-549 breast
  GI50: 15.2 µM
  TGI: 43.3 µM
